Reference: publication PMC10747250, “Structure-Based Optimization of 1,2,4-Triazole-3-Thione Derivatives: Improving Inhibition of NDM-/VIM-Type Metallo-β-Lactamases and Synergistic Activity on Resistant Bacteria” (Pharmaceuticals, 2023)
Where “and” joins values, the source holds several entries; their conditions need not be identical. Equal values may be shown once. Read-outs that look alike come from different tables or passages of the source.

Columns and labels:
[1] = target: T1, NDM-1 (Klebsiella pneumoniae, UniProt C7C422); assay: NDM-1 spectrophotometric enzyme inhibition assay (meropenem hydrolysis); format: biochemical; set-up: inhibition: dose or concentration left out as unconfirmed; conditions: for inhibition: 5 min, read-out: % Inib vs NDM-1; for IC50: substrate MEM 57 μM, 5 min incubation, triplicate, NI: no inhibition (<30% inhibition at 100 µM); for IC50 / Ki: 25 °C; for Ki: substrate MEM; for NDM-1 inhibitory activity: at 100 μM
T1 construct: made in house; host or cells: E. coli BL21(DE3)
Method: (§1) The synthesized compounds were all tested for their inhibitory activity against targeted MBLs using a spectrophotometric assay (Table S2). After an initial validation at fixed concentration, compounds yielding > 0% inhibition were profiled in dose–response experiments to determine their IC50. The IC50 values were determined by measuring the rate of hydrolysis of the reporter substrate meropenem MEM ([S] = 57 μM; Km = 63.4 μM) in the presence of five different inhibitor concentrations. Assays were run after a 5 min incubation. The Ki was either calculated by the Cheng–Prusoff equation assuming competitive inhibition, or, for selected inhibitors, fully determined with Dixon plots (Figure S1).
(§2) The percentage of inhibition (%Inh) of 1,2,4-triazole derivatives was determined against a panel of subclass B1 MBLs (NDM-1, VIM-1, VIM-2, and IMP-1). Each compound was initially tested at a fixed concentration for inhibitory activity vs. the targeted enzymes. For the best active inhibitors, half-maximal inhibitory concentration (IC50) and Ki values were determined. Reactions were monitored using a Jasco V-730 spectrophotometer ( JASCO EUROPE S.R.L. Via Luigi Cadorna 1 23894 Cremella (LC) Italy) using nitrocefin or meropenem as reported substrates. Compounds were dissolved in dimethyl sulfoxide (DMSO) and stored at −20 °C. For VIM-1, VIM-2, and IMP-1MBLs, assays were conducted in 20 mM of HEPES, 100 mM of NaCl, and ZnSO4 at 10 µM at pH 7.4 at 25 °C with 0.01% v/v Triton X-100 to avoid compound aggregation and promiscuous inhibition. For NDM-1, assays were conducted in 20 mM of TRIS HCl + 150 mM of NaCl at pH 7.5 at 25°C with 0.01% v/v Triton X-100 to avoid aggregation.
(§3) For all targeted proteins, the reaction was typically initiated by adding the substrate to the reaction buffer last, after a 5 min preincubation. After brief shaking, the reading was performed for a total kinetic time of 240 s at 25 °C. The IC50 values were determined by measuring the rate of hydrolysis of the reporter substrate in the presence of five different inhibitor concentrations. The binding affinity Ki was generally estimated from the determined IC50 using the Cheng–Prusoff equation as per competitive inhibition. For the best inhibitors, the mechanism of inhibition and Ki were determined with a Dixon plot (CP 22, CP 35, CP 56, and CP 57 against NDM-1; compound CP 57 against VIM-2).

[2] = target: VIM-1 (Pseudomonas aeruginosa, UniProt A0A0F7KYQ8); assay: VIM-1 spectrophotometric enzyme inhibition assay (nitrocefin hydrolysis); format: biochemical; set-up: dose or concentration left out as unconfirmed; conditions: 5 min, read-out: % Inib vs VIM-1
Method: as §1, §2
Table S2. The inhibitory activity of 4-amino-4H-1,2,4-triazole-3-thiol derivatives discussed here. […]
Tests were conducted at 25° C by following the absorbance variation observed upon reporter substrate (Meropenem 57 μM for NDM-1, 17 μM for VIM-2) or Nitrocefin (23 μM for VIM-1). The percentage of inhibition is reported except when ≤ 15% and in this case is indicated by NI “no inhibition”. Compounds concentration was […] vs NDM-1. Assays were run after a 5-minutes incubation. […]

[3] = target: VIM-2 (Escherichia coli, UniProt Q5U7L7); assay: VIM-2 spectrophotometric enzyme inhibition assay (meropenem hydrolysis); format: biochemical; conditions: 25 °C; for % Inib vs VIM-2: meropenem 17 μM, 5 min incubation, NI = no inhibition (≤15%)
Method: as §1, with “The IC50 values were determined by measuring the rate of hydrolysis of the reporter substrate meropenem MEM ([S] = 57 μM; Km = 63.4 μM) in the presence of five different inhibitor concentrations.” left out
as §2, §3

[4] = tested on: K. pneumoniae VA-416/02 (VIM-4); assay: Synergy with meropenem, broth microdilution MIC; format: cell-based
Method: (§4) The potential synergistic activity of the three best inhibitors (CP 35, CP 56, and CP 57) was tested using the broth microdilution method on six MBL-producing multidrug-resistant clinical isolates. […] Although apparently modest, this increase in synergistic activity represents a significant improvement over the previous generation of triazole-thione β-lactamase inhibitors previous described by our group.

[5] = tested on: P. aeruginosa VA-182/00 (VIM-2); assay: Synergy with meropenem, broth microdilution MIC; format: cell-based, Pseudomonas aeruginosa
Method: as §4

[6] = tested on: six MBL-producing multidrug-resistant clinical isolates; assay: Growth inhibition by the compound tested alone; format: cell-based; conditions: 32 μg/mL, without MEM
Method: as §4

[7] = tested on: K. pneumoniae SI-1072 (NDM-1); assay: Synergy with meropenem, broth microdilution MIC; format: cell-based
Method: as §4

[8] = tested on: K. pneumoniae SI-518 (NDM-1); assay: Synergy with meropenem, broth microdilution MIC; format: cell-based
Method: as §4

[9] = target: MBLs; set-up: method as in PMID 36450011, PMID 31871094, PMID 32482673; conditions: cited from earlier work
[10] = Ki determined with Dixon plots, read-out: NDM-1 Ki (Dixon plots)
[11] = compound 32 μg/mL, VIM-4-producing K. pneumoniae
[12] = Ki calculated from IC50 as per competitive inhibition (Cheng–Prusoff), read-out: NDM-1 Ki (calculated from IC50)
[13] = compound 32 μg/mL, NDM-1-producing K. pneumoniae (strain not given)
[14] = Klebsiella pneumoniae, MEM alone (Cpd: None)

T1 sequence (C7C422 29-270, looked up, species assumed): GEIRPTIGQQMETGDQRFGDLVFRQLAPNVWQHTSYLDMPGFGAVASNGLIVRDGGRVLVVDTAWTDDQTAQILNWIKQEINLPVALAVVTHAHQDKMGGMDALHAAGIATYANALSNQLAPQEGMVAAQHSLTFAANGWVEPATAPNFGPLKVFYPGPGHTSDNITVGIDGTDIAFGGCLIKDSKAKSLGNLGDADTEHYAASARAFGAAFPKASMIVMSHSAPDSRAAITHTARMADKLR

Q: With FC(F)(F)c1ccccc1/C=N/n1cnnc1S [CP 17, (E)-4-((2-(Trifluoromethyl)benzylidene)amino)-4H-1,2,4-triazole-3-thiol] as the molecule, how does the inhibition [1] read?
A: Its inhibition is 51%.

Q: And the IC50 [1]?
A: The IC50 was > 100 µM and 226 µM.

Q: What about the inhibition [2] of the same molecule?
A: Its inhibition is 46%.

Q: Which results are given for Sc1nncn1/N=C/c1cccc2ccccc12 [CP 18, (E)-4-((Naphthalen-1-ylmethylene)amino)-4H-1,2,4-triazole-3-thiol]?
A: inhibition [1]: > 100%; IC50 [1]: 52 ± 7.5 µM; inhibition [2]: 33%

Q: What does the source list for COc1ccc(/C=N/n2cnnc2S)cc1 [CP 19, (E)-4-((4-Methoxybenzylidene)amino)-4H-1,2,4-triazole-3-thiol]?
A: inhibition [1]: 24%; inhibition [2]: 15%

Q: With COc1cccc(/C=N/n2cnnc2S)c1 [CP 20, (E)-4-((3-Methoxybenzylidene)amino)-4H-1,2,4-triazole-3-thiol] as the molecule, how does the inhibition [1] read?
A: Its inhibition is 40%.

Q: What about the inhibition [2] of the same molecule?
A: The inhibition was 14%.

Q: What does the source list for COc1ccccc1/C=N/n1cnnc1S [CP 21, (E)-4-((2-Methoxybenzylidene)amino)-4H-1,2,4-triazole-3-thiol]?
A: inhibition [1]: 38%; inhibition [2]: 32%

Q: Which results are given for Sc1nncn1/N=C/c1cccc(Br)c1 [CP 22, (E)-4-((3-Bromobenzylidene)amino)-4H-1,2,4-triazole-3-thiol]?
A: inhibition [1]: 68%; IC50 [1]: 88.5 ± 3.7 µM; Ki [1, 10]: 42.7 µM; inhibition [2]: 46%

Q: With Sc1nncn1/N=C/c1ccccc1Br [CP 23, (E)-4-((2-Bromobenzylidene)amino)-4H-1,2,4-triazole-3-thiol] as the molecule, how does the inhibition [1] read?
A: Its inhibition is 67%.

Q: What about the IC50 [1] of the same molecule?
A: The IC50 was 83 ± 3.3 µM.

Q: What does the source list for Sc1nncn1/N=C/c1ccc(Br)cc1 [CP 24, (E)-4-((4-Bromobenzylidene)amino)-4H-1,2,4-triazole-3-thiol]?
A: inhibition [1]: 64%; IC50 [1]: 83.1 ± 2.7 µM; inhibition [2]: 28%

Q: Which results are given for O=C(O)c1ccccc1/C=N/n1cnnc1S [CP 29, (E)-2-(((3-Mercapto-4H-1,2,4-triazol-4-yl)imino)methyl)benzoic acid]?
A: NDM-1 inhibitory activity [1]: no inhibitory activity; IC50 [1]: > 100 µM; inhibition [2]: 17%

Q: For O=C(O)c1ccc(/C=N/n2cnnc2S)cc1 [CP 30, (E)-4-(((3-Mercapto-4H-1,2,4-triazol-4-yl)imino)methyl)benzoic acid], which NDM-1 inhibitory activity [1] is on record?
A: The NDM-1 inhibitory activity was “no inhibitory activity”.

Q: What about the IC50 [1] of the same molecule?
A: The IC50 was over 100 µM.

Q: What about the inhibition [2] of the same molecule?
A: The inhibition was 18%.

Q: With N#Cc1ccccc1/C=N/n1cnnc1S [CP 31, (E)-2-(((3-Mercapto-4H-1,2,4-triazol-4-yl)imino)methyl)benzonitrile] as the molecule, how does the inhibition [1] read?
A: The inhibition was 10%.

Q: With Sc1nncn1/N=C/c1ccccn1 [CP 32, (E)-4-((Pyridin-2-ylmethylene)amino)-4H-1,2,4-triazole-3-thiol] as the molecule, how does the inhibition [1] read?
A: Its inhibition is 20%.

Q: What about the inhibition [2] of the same molecule?
A: Its inhibition is 17%.

Q: For FC(F)(F)c1nnc(S)n1/N=C/c1cccc(Br)c1 [CP 35, (E)-4-((3-Bromobenzylidene)amino)-5-(trifluoromethyl)-4H-1,2,4-triazole-3-thiol], which Ki [1, 10] is on record?
A: Its Ki is 25.8 µM.

Q: And the “% Inib vs VIM-2” value [3]?
A: The value was 53%.

Q: And the “synergistic activity with MEM” value [4, 11]?
A: The value was “no synergistic activity at all”.

Q: And the “synergistic activity with MEM” value ([5]; compound 32 μg/mL, VIM-2 P. aeruginosa)?
A: The value was “no synergistic activity at all”.

Q: What about the “growth inhibition, compound tested alone” value [6] of the same molecule?
A: The value was “no growth inhibition”.

Q: Which Ki [1, 12] does the source give for O=C(O)c1ccccc1/C=N/n1c(S)nnc1C(F)(F)F [CP 45, (E)-2-(((3-Mercapto-5-(trifluoromethyl)-4H-1,2,4-triazol-4-yl)imino)methyl)benzoic acid] here?
A: The Ki was 83 µM.

Q: For FC(F)(F)c1nnc(S)n1/N=C/c1nn[nH]n1 [CP 46, (E)-4-(((2H-Tetrazol-5-yl)methylene)amino)-5-(trifluoromethyl)-4H-1,2,4-triazole-3-thiol], which “% Inib vs VIM-2” value [3] is on record?
A: Its value is 42%.

Q: Which Ki [1, 12] does the source give for FC(F)(F)c1ccc(-c2nnc(S)n2/N=C/c2cccc(Br)c2)cc1 [CP 55, (E)-4-((3-Bromobenzylidene)amino)-5-(4-(trifluoromethyl)phenyl)-4H-1,2,4-triazole-3-thiol] here?
A: The Ki was 220 µM.

Q: With O=C(O)c1cccc(/C=N/n2c(S)nnc2-c2ccc(C(F)(F)F)cc2)c1 [CP 56, (E)-3-(((3-Mercapto-5-(4-(trifluoromethyl)phenyl)-4H-1,2,4-triazol-4-yl)imino)methyl)benzoic acid] as the molecule, how does the “% Inib vs VIM-2” value [3] read?
A: The value was 42%.

Q: What about the “synergistic activity with MEM” value [4, 11] of the same molecule?
A: The value was “detectable synergistic effect”.

Q: What about the “growth inhibition, compound tested alone” value [6] of the same molecule?
A: Its value is “no growth inhibition”.

Q: With O=C(O)c1ccccc1/C=N/n1c(S)nnc1-c1ccc(C(F)(F)F)cc1 [CP 57, (E)-2-(((3-Mercapto-5-(4-(trifluoromethyl)phenyl)-4H-1,2,4-triazol-4-yl)imino)methyl)benzoic acid] as the molecule, how does the Ki [1, 10] read?
A: Its Ki is 5.59 µM and 5.6 µM.

Q: And the “% Inib vs VIM-2” value [3]?
A: The value was over 100%.

Q: What about the Ki ([3]; substrate MEM, Ki determined with Dixon plot, read-out: VIM-2 Ki (Dixon plots)) of the same molecule?
A: Its Ki is 4.14 µM and 4.1 µM.

Q: And the “reduction of meropenem MIC” value [7, 13]?
A: The value was “four-fold”.

Q: And the “reduction of meropenem MIC” value [8, 13]?
A: Its value is “four-fold”.

Q: And the “reduction of meropenem MIC” value [4, 11]?
A: Its value is “four-fold”.

Q: What about the “synergistic activity with MEM” value [4, 11] of the same molecule?
A: Its value is “detectable synergistic effect”.

Q: What about the “growth inhibition, compound tested alone” value [6] of the same molecule?
A: Its value is “no growth inhibition”.

Q: With FC(F)(F)c1ccc(-c2nnc(S)n2/N=C/c2nn[nH]n2)cc1 [CP 58, (E)-4-(((2H-Tetrazol-5-yl)methylene)amino)-5-(4-(trifluoromethyl)phenyl)-4H-1,2,4-triazole-3-thiol] as the molecule, how does the “% Inib vs VIM-2” value [3] read?
A: The value was 53%.

Q: For C[C@@H](O)[C@H]1C(=O)N2C(C(=O)O)=C(S[C@@H]3CN[C@H](C(=O)N(C)C)C3)[C@H](C)[C@H]12 [MEM, meropenem, reference compound], which MIC [7, 14] is on record?
A: The MIC was 128 µg/mL.

Q: And the MIC [8, 14]?
A: The MIC was 128 µg/mL.

Q: What about the MIC [4, 14] of the same molecule?
A: The MIC was 16 µg/mL.

Q: And the MIC ([5]; Pseudomonas aeruginosa, MEM alone (Cpd: None))?
A: Its MIC is 256 µg/mL.

Q: Which Ki values [9] does the source give for O=C(O)c1c(F)ccc2c1OB(O)[C@@H]1C[C@H]21 [QPX7728] here?
A: Its Ki values is “low nanomolar range”.

Q: For NCCN[C@H]1CC[C@H](CC(=O)N[C@H]2Cc3cccc(C(=O)O)c3OB2O)CC1 [taniborbactam], which Ki values [9] is on record?
A: The Ki values was “low nanomolar range”.
